Counter-ions that a name gives are not always drawn.

In assay [1] the target is muscarinic receptors. In words: ^3H-oxotremorine-M binding assay (inhibition of binding to cerebral cortical membranes). The following applies: 3 nM ^3H-oxotremorine-M, rat cerebral cortical membranes, 15 minutes at 25°C, read-out: Inhibition of ^3H-Oxo. The protocol:
The affinity of the compounds for the muscarinic receptors was determined using the non-selective agonist ligand, ^3H-oxotremorine-M. Birdsdall N.J.M., Hulme E.C., and Burgen A.S.V., "The Character of Muscarinic Receptors in Different Regions of the Rat Brain", 207 Proc. Roy. Soc. 1 (London, Series B, 1980). Each compound was tested to determine the affinity of the compound for the muscarinic receptors using the following procedure.
For each in vitro binding, male Sprague-Dawley (Harlan Sprague-Dawley, Indianapolis, IN) rats weighing from about 100 to about 150 grams each were sacrificed by decapitation. The brains were quickly removed and the cerebral cortex were dissected from the brain. The cerebral cortex tissue was homogenized in 10 volumes of 0.32 M sucrose and […] at about 1000 x g. The supernatant was centrifuged at about 12,000 x g for about 10 minutes and the resulting pellet was resuspended in 20 mM tris-CI, pH 7.4. The resuspended pellet was centrifuged again for about 10 minutes at about 50,000 x g. The resulting homogenate was preincubated for about 10 minutes at about 25°C and centrifuged again for about 10 minutes at about 50,000 x g. The pellet was resuspended at 1 gram of pellet per 3 ml of buffer and frozen at about -80°C until used.
The aforementioned homogenates mixture was incubated for about 15 minutes at about 25°C and then the homogenates were filtered through glass filters (Whatman, GF/C) with vacuum. The filters were washed 3 times with about 2 ml of cold tris-CI buffer, and placed in scintillation vials containing about 10 ml of scintillation fluid (Ready Protein+, Beckman, Fullerton, CA). Radioactivity trapped on the filters was determined by liquid scintillation spectrometry. Nonspecific binding was determined using 1 µM atropine. […] DeLean, A. et al. Am. J. Physiol., 235, (1978).

Assay [2] relates to rats. In words: Conditioned avoidance behavior in rats. The class given is in vivo, rat. As to conditions: 3.0 mg/kg s.c. 30 min before the session, active if % avoidance reduced to at least 50%. From the text:
In a conditioned avoidance test, animals learn to respond during a conditioned stimulus in order to avoid mild shock presentation. A response during the conditioned stimulus is termed an avoidance respone, a response during shock is termed an escape response; a response failure is when the animal fails to respond during either the conditioned stimlus or the shock presentation and is indicative of motor impairment. Animals rapidly learn to avoid 99% of the time. Antipsychotic drugs decrease the percentage of avoidance responses without interfering with the ability of the animal to respond since the animals do emit escape responses. The percentage of response failures is considered a measure of motor impairment.
Rats were required to press a response lever in an experimental chamber in order to avoid or escape foot-shock. Each experimental session consisted of 50 trials. During each trial, the chamber was illuminated and a tone presented for a maximum of 10 sec. A response during the tone immediately terminated the tone and the houselight, ending the trial. In the absence of a response during the tone alone, tone+foot-shock (2.0 mA) was presented for a maximum of 10 sec. A response during shock presentation immediately terminated the shock, the tone and the houselight, ending the trial.
For drug screening, a dose of 3.0 mg/kg was administered s.c. 30 min before the start of the experimental session. A drug was considered active if it reduced the % avoidance responding to at least 50% without producing greater than 50% response failures. For active drugs, a dose-response curve was subsequently determined.

As to `COc1nsnc1C1=CCCN(C)C1.O=C(O)C(=O)O` [Compound 1, 1,2,5,6-Tetrahydro-3-(3-methoxy-1,2,5-thiadiazol-4-yl)-1-methylpyridine oxalate], in assay [1], the IC50 amounted to 22 nM. Further, in assay [2], the “Conditioned Avoidance % Avoidance Responses” value was determined as 97%.

For `CCOc1nsnc1C1=CCCN(C)C1.O=C(O)C(=O)O` [Compound 2, 3-(3-Ethoxy-1,2,5-thiadiazol-4-yl)-1,2,5,6-tetrahydro-1-methylpyridine oxalate], the IC50 in assay [1] is 5.7 nM. In assay [2], the “Conditioned Avoidance % Avoidance Responses” value came out at 70%.

With `CCCOc1nsnc1C1=CCCN(C)C1.O=C(O)C(=O)O` [Compound 3, 1,2,5,6-Tetrahydro-1-methyl-3-(3-propoxy-1,2,5-thiadiazol-4-yl)pyridine oxalate], the IC50 in assay [1] was found to be 1.6 nM. In assay [2], the “Conditioned Avoidance % Avoidance Responses” value turned out to be 71%.

In the case of `CCCCOc1nsnc1C1=CCCN(C)C1.O=C(O)C(=O)O` [Compound 4, 3-(3-Butoxy-1,2,5-thiadiazol-4-yl)-1,2,5,6-tetrahydro-1-methylpyridine oxalate], the IC50 in assay [1] is 2 nM. Also, the “Conditioned Avoidance % Avoidance Responses” value in assay [2] stood at 74%.

For `CCCSc1nsnc1C1=CCCN(C)C1.O=C(O)C(=O)O` [Compound 47, 3-(3-Propylthio-1,2,5-thiadiazol-4-yl)-1,2,5,6-tetrahydro-1-methylpyridine oxalate], the IC50 in assay [1] is 0.9 nM. The “Conditioned Avoidance % Avoidance Responses” value in assay [2] is 49%.

Regarding `CCCCSc1nsnc1C1=CCCN(C)C1.O=C(O)C(=O)O` [Compound 48, 3-(3-Butylthio-1,2,5-thiadiazol-4-yl)-1,2,5,6-tetrahydro-1-methylpyridine oxalate], the IC50 in assay [1] amounted to 1.7 nM. Besides, the “Conditioned Avoidance % Avoidance Responses” value in assay [2] came out at 57%.

Take `CSc1nsnc1C1=CCCN(C)C1.O=C(O)C(=O)O` [Compound 49, 3-(3-Methylthio-1,2,5-thiadiazol-4-yl)-1,2,5,6-tetrahydro-1-methylpyridine oxalate]: in assay [1], the IC50 was 2.3 nM. The “Conditioned Avoidance % Avoidance Responses” value in assay [2] is 37%.

As for `CCSc1nsnc1C1=CCCN(C)C1.O=C(O)C(=O)O` [Compound 65, 3-(3-Ethylthio-1,2,5-thiadiazol-4-yl)-1,2,5,6-tetrahydro-1-methylpyridine oxalate], the IC50 in assay [1] was found to be 1.9 nM. Besides, in assay [2], the “Conditioned Avoidance % Avoidance Responses” value was 69%.

For `CCCCCSc1nsnc1C1=CCCN(C)C1.O=C(O)C(=O)O` [Compound 66, 3-(3-Pentylthio-1,2,5-thiadiazol-4-yl)-1,2,5,6-tetrahydro-1-methylpyridine oxalate], the IC50 in assay [1] is 4.8 nM. Besides, the “Conditioned Avoidance % Avoidance Responses” value in assay [2] stood at 87%.

With `CCOc1nsnc1C1=CCCNC1.Cl` [Compound 215, 3-(3-Ethoxy-1,2,5-thiadiazol-4-yl)-1,2,5,6-tetrahydropyridine hydrochloride], the IC50 in assay [1] is 10.5 nM. In addition, the “Conditioned Avoidance % Avoidance Responses” value in assay [2] amounted to 61%.

Turning to `CCSc1nsnc1C1=CCCNC1.Cl` [Compound 216, 3-(3-Ethylthio-1,2,5-thiadiazol-4-yl)-1,2,5,6-tetrahydropyridine hydrochloride], the IC50 in assay [1] came to 6.5 nM. For the same molecule, in assay [2], the “Conditioned Avoidance % Avoidance Responses” value was found to be 12%.

Consider `CCCSc1nsnc1C1=CCCNC1.O=C(O)C(=O)O` [Compound 217, 3-(3-Propylthio-1,2,5-thiadiazol-4-yl)-1,2,5,6-tetrahydropyridine oxalate], for which, in assay [1], the IC50 was 1.2 nM. For the same molecule, the “Conditioned Avoidance % Avoidance Responses” value in assay [2] is reported as 30%.

For the molecule `CCCCSc1nsnc1C1=CCCNC1.O=C(O)C(=O)O` [Compound 218, 3-(3-Butylthio-1,2,5-thiadiazol-4-yl)-1,2,5,6-tetrahydropyridine oxalate], the IC50 in assay [1] turned out to be 3.5 nM. Besides, the “Conditioned Avoidance % Avoidance Responses” value in assay [2] was 39%.

With `CCCCCSc1nsnc1C1=CCCNC1.O=C(O)C(=O)O` [Compound 219, 3-(3-Pentylthio-1,2,5-thiadiazol-4-yl)-1,2,5,6-tetrahydropyridine oxalate], in assay [1], the IC50 amounted to 5.8 nM. Also, the “Conditioned Avoidance % Avoidance Responses” value in assay [2] was 79%.

For `CCCCCCSc1nsnc1C1=CCCNC1` [Compound 220, 3-(3-Hexylthio-1,2,5-thiadiazol-4-yl-1,2,5,6-tetrahydropyridine oxalate], in assay [1], the IC50 was found to be 3 nM. Moreover, the “Conditioned Avoidance % Avoidance Responses” value in assay [2] is on record as 88%.

With `Cl.FC(F)(F)CSc1nsnc1C1=CCCNC1` [Compound 222, 3-(3-(2,2,2-Trifluoroethylthio)-1,2,5-thiadiazol-4-yl)-1,2,5,6-tetrahydropyridine hydrochloride], the IC50 in assay [1] amounted to 0.42 nM. Moreover, the “Conditioned Avoidance % Avoidance Responses” value in assay [2] was 0%.

With `Cl.FC(F)(F)COc1nsnc1C1=CCCNC1` [Compound 223, 3-(3-(2,2,2-Trifluoroethoxy)-1,2,5-thiadiazol-4-yl)-1,2,5,6-tetrahydropyridine hydrochloride], the IC50 in assay [1] turned out to be 7.4 nM. Further, the “Conditioned Avoidance % Avoidance Responses” value in assay [2] came to 31%.

For `CN1CCC=C(c2nsnc2SCCSc2cccs2)C1` [Compound 228, 3-(3-(2-(2-Thienylthio)ethylthio))-1,2,5-thiadiazol-4-yl)-1,2,5,6-tetrahydro-1-methylpyridine oxalate], the IC50 in assay [1] is 0.6 nM. For the same molecule, the “Conditioned Avoidance % Avoidance Responses” value in assay [2] turned out to be 92%.

Source of the values: patent EP0734259B1, “Use of piperidine compounds in the treatment of schizophrenia” (NOVO NORDISK A/S, priority 1993, dated 1995).
